Experimental data: patent US5559209A, “Regulator regions of G proteins” (The General Hospital Corporation, priority 1993, dated 1996)
Where no end group is shown, it is not given here.

Legend:
[1] = system: somatostatin receptor/K+ channel linkage in human growth hormone-secreting pituitary adenoma cells; assay: Somatostatin-induced K+ currents, whole cell patch clamp; format: cell-based; settings: 100 nM somatostatin, absence of anticouplone peptides
Method: Inhibition Of somatostatin receptor function. It is known that somatostatin induces K^+ channel activation in a manner sensitive to pertussis toxin in human growth hormone-secreting tumors (Yamashita et al., Am. J. Physiol. 253:E28-E32, 1987). The effect of each of ACGi2, ACGi3, ACGs, ACGo1, and ACGo2 on somatostatin-induced K^+ currents in human pituitary cells was measured using the patch clamp technique, as described below.
Three human growth hormone-secreting pituitary adenomas were obtained at transsphenoidal surgery. The tissue was minced into small pieces (less than 1 mm in diameter) and was treated with 1000 units/ml dispase (Wako, Japan). These dissociated cells (≈10^5 cells/ml) were seeded onto 35-mm culture dishes. […]
A whole cell variation of the patch electrode voltage clamp technique was used to record membrane currents (Hamill et al., Pfluger Arch. 391:85-100, […]). […] The liquid junction potential between the extracellular solution and the internal solution was directly measured using a 3M KCl electrode as a reference. […]
The intracellular solution that filled the inside of the pipet portion of the apparatus contained one of the following anticouplone peptides at 100 μM: ACGi2, ACGi3, ACGs, ACGo1, or ACGo2. The exterior of the cell was bathed with the extracellular solution containing 100 nM somatostatin while the outward K^+ current was monitored. […]

Gi2 = molecular target: T1, Gi2 (Bos taurus, UniProt A7MBH9); assay: GTPγS binding assay, peptide 14-induced Gi2 activation; format: biochemical, bovine; settings: 10 μM peptide variant, 10 nM Gi2, 30 μM peptide 14
T1 construct: trimeric Gi2 (i.e., Gi2 αβγ) purified from bovine brain to near homogeneity; from tissue; host or cells: bovine brain
T1 sequence (A7MBH9 2-355 limits assumed): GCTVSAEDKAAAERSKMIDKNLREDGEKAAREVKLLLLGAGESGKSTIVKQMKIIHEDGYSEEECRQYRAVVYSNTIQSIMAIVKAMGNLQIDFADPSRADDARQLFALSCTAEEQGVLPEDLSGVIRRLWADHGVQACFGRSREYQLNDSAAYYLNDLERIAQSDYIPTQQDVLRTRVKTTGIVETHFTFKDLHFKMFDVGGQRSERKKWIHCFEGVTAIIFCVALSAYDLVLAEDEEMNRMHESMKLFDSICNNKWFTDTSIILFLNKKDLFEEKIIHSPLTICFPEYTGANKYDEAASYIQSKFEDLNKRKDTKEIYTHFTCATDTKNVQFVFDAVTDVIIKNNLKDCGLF
T1 sequence (P62871 2-340 partner limits assumed): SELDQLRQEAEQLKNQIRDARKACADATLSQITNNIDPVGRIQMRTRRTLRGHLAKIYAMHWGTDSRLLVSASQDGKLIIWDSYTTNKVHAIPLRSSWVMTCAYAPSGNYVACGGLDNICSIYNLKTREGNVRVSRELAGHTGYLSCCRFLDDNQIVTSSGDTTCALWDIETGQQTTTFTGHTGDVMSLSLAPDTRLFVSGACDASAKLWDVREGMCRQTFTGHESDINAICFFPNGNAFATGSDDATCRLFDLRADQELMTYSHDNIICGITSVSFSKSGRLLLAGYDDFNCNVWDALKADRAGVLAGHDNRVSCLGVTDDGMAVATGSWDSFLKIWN
T1 sequence (P63212 2-68 partner limits assumed): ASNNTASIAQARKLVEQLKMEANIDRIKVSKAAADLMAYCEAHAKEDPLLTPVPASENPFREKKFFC
Method: Materials and Methods The in vitro assays described below utilize the couplone portion of each of a number of G-coupled receptors, instead of an intact receptor molecule, as a means for activating the corresponding anticouplone or intact G-protein. Except as noted below, Gi2 used in this study was trimeric Gi2 (i.e., Gi2 αβγ) purified from bovine brain to near homogeneity (Katada et al., FEBS Lett. 213:353-358 (1987), stored in buffer A (20 mM hepes/NaOH (pH 7.4), 1 mM EDTA, and 0.7% CHAPS), and diluted≥10 fold for assays. The Gi2 used for the reconstitution experiment was trimeric Gi2 purified from bovine spleen to homogeneity and dissolved in buffer B (Morishita et al., 1989). Gi3 α (Morishita et al., Biochem. Biophys. Res. Commun. 172:249-255 (1990), was purified from bovine spleen and used in combination with 1.5-fold concentrated Gβγ (Katada et al., 1987). This preparation of Gi3 α was 10-20% contaminated by Gi1 α, but not by other G proteins. Trimeric Gs and Gβγ purified from bovine brain to near homogeneity (Katada et al., 1987) were also stored in buffer A.
GTPγS binding Assay--GTPγS binding to G proteins was assayed at 37° C. in 20 mM Hepes/NaOH buffer (pH 7.4) containing 130 μM MgCl2, 110 μM EDTA and 60 nM [^35 S]GTPγS, as described previously (Okamoto et al., 1990). GTPγS binding to polypeptides was negligible. The total amount of G protein was measured as maximal GTPγS binding at room temperature, as described (Okamoto et al., Cell 67:723-730, 1991a). [^35 S]GTPγS was purchased from DuPont-New England Nuclear. Binding of GTPγS to G proteins obeyed first-order kinetics according to the equation ln[(BT-B)/BT]=-kapp t, where B is the binding at time t and BT is the total binding observable at an infinite time. Thus, the apparent first-order rate constant for GTPγS binding (kapp), which is equal to the slope of the tangent to the GTPγS binding curve at time 0 and represents the actual GTPγS binding rate, was calculated from this equation.
In the experiment illustrated in FIG. 1A, 10 nM Gi2 was incubated with 30 μM peptide 14 (RVGLVRGEKARKGK; SEQ ID NO: 27), the couplone portion of the IGF-II receptor, in the presence of various concentrations of (.quadrature.) ACGi2 (DAVTDVIIKNNLKDC; SEQ ID NO: 3), (567 ) the control Gi2 α Glu297-Asp310 peptide (EAASYIQSKFEKLN; SEQ ID NO: 18), or (.diamond.) the control Gi2 α Lys346-Phe355 peptide (KNNLKDCGLF; SEQ ID NO: 19) for 5 min under the GTPγS binding assay conditions described above, and GTPγS binding to G proteins was measured. The effect of ACGi2 on Gi2 in the absence of peptide 14 is indicated by .box-solid.. Percent stimulation of GTPγS binding was calculated by subtracting the basal fractional binding and dividing by the stimulated fractional binding observed in the absence of ACGi2. The basal fractional binding (=0%) was 0.39 mol GTPγS binding/mol Gi /5 min (5 min^-1). The 100% increase represents the GTPγS binding of 0.85 (5 min^-1). Values in all figures represent the mean ±S.E. of three experiments.
To verify the notion that ACGi2 acts on Gi2 itself, and not on receptor sequences, two series of experiments were performed. First, the dose-response curve for peptide 14 action on Gi2 in the presence of various concentrations of ACGi2 was generated (FIG. 2A). Following incubation of 10 nM Gi2 with various concentrations of peptide 14 in the absence (.quadrature.) or presence of 10 μM (.diamond-solid.) or 30 μM (.box-solid.) ACGi2 for 5 min, GTPγS binding was assayed; fractional GTPγS binding to Gi2 is indicated in the figure.
The second series of experiments investigated the effect of ACGi2 on lower concentrations of Gi2 that had been activated by peptide 14 to the same extent (FIG. 2B). 1 nM Gi2 was incubated for 5 min with 3 μM peptide 14 in the presence of various concentrations of ACGi2, and GTPγS binding was measured. The fractional GTPγS binding at 0% and 100% in this experiment was 0.40 and 0.55 (5 min^-1), respectively. […]

T cell receptor = assay: OKT3-induced polyphosphoinositide turnover in Jurkat cells; format: cell-based, human; settings: OKT3 1:100 for 5 min, no peptide
Method: Inhibition of T cell receptor function with ACGq. T cell receptor stimulation by monoclonal antibody OKT^3 in Jurkat cells, a line of human T cells, induces measurable polyphosphoinositide (PI) turnover. 10^7 cells were labelled with 5 μCi/ml [^3 H]myoinositol in inositol-free RPMI1640 for 12 hours. After incubating the cells with 500 μM ACGq, samples containing 5×10^5 cells were then exposed to the monoclonal antibody OKT3 (Ortho) at 1:100 dilution for 5 min. Perchloric acid was added to a final concentration of 10% to lyse the cells and terminate the reaction. Cell lysates were collected into tubes and brought to pH>8 by the addition of KOH. Following centrifugation of the lysates, the supernatants were passed over a DOWX anion exchange column (Muromachi Chemicals, Japan) to separate inositol polyphosphates (IPs) from other inositol metabolites, and the amount of [^3 H] label in the inositol trisphosphate (IP3) fraction assessed.

[2] = system: NRK (rat renal fibroblast) cells; assay: TGFβ-induced fibronectin secretion, immunoblot; format: cell-based; settings: 50 pM TGFβ, 12 hours
Excerpt: Inhibition of TGFβ-induced matrix formation. The secretion of matrix proteins (in particular, fibronectin) by kidney, lung and liver cells may lead to sclerosis of those organs. Transforming growth factor-β (TGFβ), which stimulates the secretion of fibronectin, may therefore contribute to such sclerosis. Since the TGFβ receptor is a Go2 -coupled receptor, the ability of ACGo2 to inhibit the TGFβ-induced stimulation of fibronectin secretion by NRK (rat renal fibroblast) cells (Ignotz and Massague, J. Biol. Chem. 261:4337-4345, 1986) was assayed.
NRK cells were cultured in RPMI 1640 supplemented with 5% FCS in a CO2 -incubator at 37° C. The medium was replaced every two days. Cells were regularly subcultured by trypsin-EDTA before reaching confluency. In the experiments described below, the cells were grown in monolayer to confluency in 6-well culture plates (Corning, N.Y.), then incubated for 12 hours with RPMI 1640 plus 0.5% FCS, and for a further 12 hours with RPMI 1640 plus 0.5% FCS in the presence or absence of 50 pM TGFβ (R & D System, Minneapolis, Minn.), to which was added 100 μM ACGi2, ACGs, ACGo2, or ACGq. The medium from each well was collected and frozen at -20° C. until assay. Fibronectin secreted into each sample of medium was assessed by immunoblot as follows: […]

| Compound | inhibition at 10 µM (Gi2) [%] | further results |
| --- | --- | --- |
| C[C@H](N)C(=O)NCC(=O)N[C@H]1CSSC[C@@H](C(=O)O)NC(=O)[C@H](CO)NC(=O)[C@H]([C@@H](C)O)NC(=O)[C@H](Cc2ccccc2)NC(=O)[C@H]([C@@H](C)O)NC(=O)[C@H](CCCCN)NC(=O)[C@H](Cc2c[nH]c3ccccc23)NC(=O)[C@H](Cc2ccccc2)NC(=O)[C@H](Cc2ccccc2)NC(=O)[C@H](CC(N)=O)NC(=O)[C@H](CCCCN)NC1=O [somatostatin] | – | K+ current induced over baseline [1]: approximately 20 pA |
| AAVTDVIIKNNLKDC [A1 variant, AAVTDVIIKNNLKDC] | ≥ 30 | – |
| DAVTAVIIKNNLKDC [A2 variant, DAVTAVIIKNNLKDC] | ≥ 80 | – |
| OKT3: monoclonal antibody OKT3 (Ortho) stimulating the T cell receptor | – | [3H] incorporation into IP relative to control cells not exposed to OKT3 (T cell receptor): 157% |
| TGFβ: Transforming growth factor-β, which stimulates the secretion of fibronectin | – | fibronectin secreted by cells exposed to TGFβ [2]: significant amount of fibronectin is secreted |

Further lines, with some results ahead:

| inhibition at 10 µM (Gi2) [%] | Compound | further results |
| --- | --- | --- |
| ≥ 30 | DAVTDVIIK [p9 variant, DAVTDVIIK] | – |
| ≥ 30 | DAVTDVIIKANLKDC [A3 variant, DAVTDVIIKANLKDC] | – |
| ≥ 80 | DAVTDVIIKNNLKAC [A5 variant, DAVTDVIIKNNLKAC] | – |
| ≥ 30 | DAVTDVIIKNNLKD [del C variant, DAVTDVIIKNNLKD] | – |
